According to patent publication US12703685B2, “Crystalline forms of solvates of tryptophan derivatives, compositions comprising them and uses thereof” (GALIMEDIX THERAPEUTICS INC., priority 2020, dated 2026):
Square brackets hold non-standard residues; d marks the D form. Peptide text beside a SMILES is read from it. Aib = CC(C)(N)C(=O)O

Legend:
[1] = 50° C.
[2] = Hygroscopicity at 58-60% relative humidity; assay type: physicochemical; details: 20-25° C.
[3] = Stability test of the crystalline salt at 50° C.; assay type: physicochemical; details: 48 hours
[4] = DSC heating above the melting point, residue analyzed by TLC; assay type: physicochemical; details: DSC heating cycle
Excerpt: During the second heating cycle the peak of melting was missing, only the high temperature decomposition was observed. […]

[5] = Oral bioavailability; details: in vivo, rodents
Protocol: In some embodiments a pharmaceutical composition of the invention is an oral administration form. […] In some embodiments, the oral availability of the pharmaceutical composition of the invention is in the range of 10%. In another embodiment, the oral availability of the pharmaceutical composition of the invention is above 10%. In some embodiments the pharmaceutical composition is administered once a day, twice a day or three times a day.

[6] = Solubility in water

| Compound | stability of 70 w/w % aqueous solution (degradation) ([1]; 48 hours) | thermal stability of 70 w/w % solution in water (decomposition by TLC) ([1]; N2 atmosphere, 24 hrs) | hygroscopicity: weight increase of crystals ([2]; 24 hours) | hygroscopicity: weight increase of crystals ([2]; 48 hours) | stability of crystalline salt (degradation) [3] | decomposition after heating above the melting point [4] | bioavailability [5] | solubility of crystalline forms [6] | Solubility at 24° C. ([6]; deionized water, 24° C., stirred 1 hr, filtered, filtrate evaporated) | solubility in water (concentration of solution) ([6]; deionized water, room temperature) |
| --- | --- | --- | --- | --- | --- | --- | --- | --- | --- | --- |
| CC(C)(NC(=O)[C@H](N)Cc1c[nH]c2ccccc12)C(=O)O [UB-18813] (H-[dW]-[Aib]-OH) | no degradation was observed | No traces of decomposition | 2.64% | 3.4% | no degradation was observed | no decomposition |  |  |  |  |
| CC(C)(NC(=O)[C@H](N)Cc1c[nH]c2ccccc12)C(=O)O [compound (1)] (H-[dW]-[Aib]-OH) |  |  |  |  |  |  | ~5% | very poor solubility | 1.3 w/w % | 1.3 w/w % |
